The record followed here is patent US9028845B2, “Chimeric immunomodulatory compounds and methods of using the same-IV” (Dynavax Technologies Corporation, priority 2001, dated 2015).

In this assay the test system is human PBMCs. The experiment in a line: Human PBMC cytokine response assay (IFN-γ and IFN-α in cell-free medium by ELISA), with or without cPLGA.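 As to IFN-α (pg/ml) mean: 20 µg/mL compound for 24 hours.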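 As to IFN-γ (pg/ml) mean: 20 µg/mL compound for 24 hours.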 The assay is classed as cell-based. To be noted: for IFN-α induction, in words: used alone.
The mark [1] stands for this setting: Table 24, mean of donors 28234-28237.
The mark [2] stands for this setting: mean of donors 28185-28188, Table 15.
Where [3] appears, read: mean of donors 110, 112, 119, 120, Table 14.

“(5′-TCGTCGA-3′-TEG)2-glycerol-TEG-5′-TCGTCGA-3′ [Compound C-103]”: the “IFN-α induction, in words” value is recorded as “HEG (C-94)>TEG (C-103)>C3 (C-104)=no linker (C-28)”. Under “Table 24, donor 28234”, this substance displayed an IFN-α of 16 pg/mL and an IFN-γ of 21 pg/mL. For the same substance, where the note is “Table 24, donor 28235”, the IFN-α was 21 pg/mL and the IFN-γ turned out to be 44 pg/mL. For the same substance, for the setting “Table 24, donor 28236”, the IFN-α turned out to be 126 pg/mL and the IFN-γ was determined as 250 pg/mL. Where the note is “Table 24, donor 28237”, this substance had an IFN-α of 213 pg/mL and an IFN-γ of 1854 pg/mL. Under setting [1], this substance came in with an IFN-α mean of 94 pg/mL and an IFN-γ mean of 542 pg/mL.

Turning to “HEG-5′-TCGTCG-3′-HEG-5′-ACGTTCG-3′-HEG-5′-AGATGAT-3′-TEG (phosphodiester linkages) [Compound C-31]”, the IFN-α came to 158 pg/mL (Table 9, donor 28089); 26 pg/mL (Table 9, donor 28090); 62 pg/mL (Table 9, donor 28098); 29 pg/mL (Table 9, donor 28099). Moreover, the IFN-γ runs as follows: (Table 9, donor 28089) 0 pg/mL; (Table 9, donor 28090) 0 pg/mL; (Table 9, donor 28098) 0 pg/mL; (Table 9, donor 28099) 2 pg/mL. The substance also yielded an IFN-α mean (Table 9, mean of donors) of 69 pg/mL. Moreover, the IFN-γ mean (Table 9, mean of donors) amounted to 0 pg/mL. The “activity when formulated with cPLGA, in words” value (formulated with cPLGA) is recorded as “good activity when formulated with cPLGA”. Further, where the note is “used alone (no cPLGA)”, the “immunomodulatory activity (IFN-γ / IFN-α secretion), in words” value was “inactive as a CIC alone”.

For the substance “HEG-5′-TCGTCG-3′-HEG-5′-ACGTTCG-3′-HEG-5′-AGATGAT-3′-TEG [Compound C-30]”, the IFN-α runs as follows: (Table 9, donor 28089) 134 pg/mL; (Table 9, donor 28090) 29 pg/mL; (Table 9, donor 28098) 52 pg/mL; (Table 9, donor 28099) 47 pg/mL. For the same substance, the IFN-γ reads like this: (Table 9, donor 28089) 0 pg/mL; (Table 9, donor 28090) 6 pg/mL; (Table 9, donor 28098) 12 pg/mL; (Table 9, donor 28099) 20 pg/mL. Also, the IFN-α mean (Table 9, mean of donors) was 65 pg/mL. In addition, under “Table 9, mean of donors”, the IFN-γ mean was 9 pg/mL.

For “Starburst Dendrimer ® -(5′-TGACTGTGAACGTTCGAGATGA-3′)x (X range = 3-16) (SEQ ID NO: 2) (See Ex. 24) [Compound C-102]”, the “IFN-α induction, in words” value is reported as “significantly more IFN-α activity than the P-6 sequence alone”. Moreover, where the note is “donor 28185, Table 15”, the “IFN-a” value is 1880 pg/mL and the “IFN-g” value turned out to be 158 pg/mL. Further, under “donor 28186, Table 15”, the “IFN-a” value was 187 pg/mL and the “IFN-g” value was found to be 43 pg/mL. Also, for the setting “donor 28187, Table 15”, the “IFN-a” value is 109 pg/mL and the “IFN-g” value stood at 101 pg/mL. For the setting “donor 28188, Table 15”, the “IFN-a” value stood at 4 pg/mL and the “IFN-g” value turned out to be 6 pg/mL. Under setting [2], the “IFN-a (pg/ml) mean” value was 545 pg/mL and the “IFN-g (pg/ml) mean” value stood at 77 pg/mL. Besides, the “IFN-a (pg/ml) ×2” value (mean ×2, Table 15) amounted to 1090 pg/mL. Moreover, the “IFN-g (pg/ml) ×4” value (mean ×4, Table 15) was found to be 307 pg/mL.

Regarding “TMEA-(5′-TGACTGTGAACGTTCGAGATGA-3′)3 (SEQ ID NO: 139) (See Ex. 23) [Compound C-99]”, the “IFN-α induction, in words” value is “did not induce IFN-α”. In addition, for the setting “donor 110, Table 14”, the “IFN-α” value worked out at 22 pg/mL and the “IFN-γ” value was found to be 276 pg/mL. Besides, where the note is “donor 112, Table 14”, the “IFN-α” value was found to be 4 pg/mL and the “IFN-γ” value was determined as 12 pg/mL. Moreover, under “donor 119, Table 14”, the “IFN-α” value was 86 pg/mL and the “IFN-γ” value is 16 pg/mL. For the setting “donor 120, Table 14”, the “IFN-α” value came to 2 pg/mL and the “IFN-γ” value worked out at 40 pg/mL. Besides, the “IFN-γ induction when formulated with cPLGA, in words” value (formulated with cPLGA) is reported as “induced IFN-γ only when formulated with cPLGA”. For the same substance, under setting [3], the “IFN-α (pg/ml) mean” value came out at 29 pg/mL and the “IFN-γ (pg/ml) mean” value was found to be 86 pg/mL.
